The test has as its target NHE-1 (Na+/H+ exchanger isoform 1) (Homo sapiens, UniProt P19634). Nature of the test: BCECF pHi recovery from NH4Cl acid load. Type of test: cell-based.

Chain of NHE-1 (Na+/H+ exchanger isoform 1) (P19634 whole entry, canonical isoform): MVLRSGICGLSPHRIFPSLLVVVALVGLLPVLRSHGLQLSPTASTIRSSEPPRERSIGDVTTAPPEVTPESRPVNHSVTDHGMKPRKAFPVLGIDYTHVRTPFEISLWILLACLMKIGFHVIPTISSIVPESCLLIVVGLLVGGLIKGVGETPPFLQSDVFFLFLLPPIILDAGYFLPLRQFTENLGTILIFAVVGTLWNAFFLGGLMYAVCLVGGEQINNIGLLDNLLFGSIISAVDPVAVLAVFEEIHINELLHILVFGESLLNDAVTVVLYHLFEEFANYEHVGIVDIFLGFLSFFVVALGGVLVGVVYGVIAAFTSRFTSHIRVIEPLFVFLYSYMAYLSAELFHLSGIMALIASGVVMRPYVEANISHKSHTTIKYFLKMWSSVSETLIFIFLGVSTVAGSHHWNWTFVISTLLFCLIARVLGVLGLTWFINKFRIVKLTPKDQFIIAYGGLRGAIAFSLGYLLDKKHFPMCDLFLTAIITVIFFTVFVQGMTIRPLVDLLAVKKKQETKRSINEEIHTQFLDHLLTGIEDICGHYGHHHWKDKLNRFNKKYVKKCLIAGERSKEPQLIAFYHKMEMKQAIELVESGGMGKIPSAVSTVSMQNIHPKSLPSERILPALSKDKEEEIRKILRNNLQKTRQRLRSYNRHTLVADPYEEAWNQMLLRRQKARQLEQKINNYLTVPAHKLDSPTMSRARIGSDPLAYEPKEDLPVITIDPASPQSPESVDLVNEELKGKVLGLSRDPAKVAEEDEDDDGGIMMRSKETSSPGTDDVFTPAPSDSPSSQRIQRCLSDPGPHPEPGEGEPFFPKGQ

For `CS(=O)(=O)c1cc(C(=O)N=C(N)N)ccc1N1CCCCC1` [HOE694], the IC50 is ~10 nM.

The IC50 is the concentration that gives 50% inhibition. The low end stands for inhibition by little substance, the high end for a need for much substance.

These data come from publication PMC2120756 (The Journal of Cell Biology, 1996).
